Measured values reported in US6921772B2, “Methods and compositions for the treatment of chronic lymphocytic leukemia” (Salmedix, Inc., priority 1998, dated 2005).

Columns and labels:
[1] = tested on: normal human adherent mononuclear cells; test: Uptake of TAMRA stained patient mononuclear cells by normal adherent mononuclear cells (phagocytosis), flow cytometry; assay type: cell-based
Method: To examine the possibility that a metabolite of etodolac or a serum factor may be necessary to achieve the clinical effect, the in vivo percentages of viable, apoptotic and late apoptotic or necrotic cells of isolated mononuclear cells were measured by flow cytometry using FITC annexin and propridium iodide assay. During early apoptosis and preceding DNA fragmentation, phosphatydylserine becomes exposed and bond by annexin V. Later in apoptosis and in cell necrosis, cells also become permeable to propidium iodide. FITC labeled […] and propidium iodide are easily detected by flow cytometry. Mononuclear cells were isolated from the peripheral blood of the patient by differential centrifugation on ficoll-Hypaque at baseline and then daily for three additional days after administration of etodolac. […] However, the percentage of viable cells increased and the percentage of late apoptotic or necrotic cells decreased. […] After an overnight incubation, the adherent cells were isolated and analyzed by flow cytometry for uptake of TAMRA stained cells from the patient. No increase in the uptake of the stained leukemic mononuclear cells by the normal adherent cells could be detected for etodolac compared to naproxen. […]

[2] = tested on: patient with B-cell CLL; test: In vivo administration of NSAIDs to a B-cell CLL patient: blood cell counts
[3] = tested on: isolated mononuclear cells from the peripheral blood of the patient; test: FITC annexin / propidium iodide flow cytometry of the patient's isolated mononuclear cells after etodolac; assay type: in vivo, human; details: baseline and daily for three days after administration, as lymphocyte count dropped
Method: To examine the possibility that a metabolite of etodolac or a serum factor may be necessary to achieve the clinical effect, the in vivo percentages of viable, apoptotic and late apoptotic or necrotic cells of isolated mononuclear cells were measured by flow cytometry using FITC annexin and propridium iodide assay. During early apoptosis and preceding DNA fragmentation, phosphatydylserine becomes exposed and bond by annexin V. Later in apoptosis and in cell necrosis, cells also become permeable to propidium iodide. FITC labeled […] and propidium iodide are easily detected by flow cytometry. Mononuclear cells were isolated from the peripheral blood of the patient by differential centrifugation on ficoll-Hypaque at baseline and then daily for three additional days after administration of etodolac. […] However, the percentage of viable cells increased and the percentage of late apoptotic or necrotic cells decreased. […] To examine the possibility that etodolac might enhance the clearance of leukemic lymphocytes by enhancing phagocytosis by macrophages, TAMRA stained isolated mononuclear cells from the patient were incubated with normal human adherent mononuclear cells in the presence of naproxen or etodolac in vitro. After an overnight incubation, the adherent cells were isolated and analyzed by flow cytometry for uptake of TAMRA stained cells from the patient. No increase in the uptake of the stained leukemic mononuclear cells by the normal adherent cells could be detected for etodolac compared to naproxen. To test the possibility that a metabolite of etodolac could be responsible for the effect, serum from the patient was collected free of drug, after receiving naproxen 375 mg bid for two days and after receiving etodolac 400 mg bid for two days, and tested in the above manner.

[4] = B-cell CLL patient, count after NSAID course, etodolac 300 mg BID, mean +/- SD of 3 experiments

Row | Compound | effect on lymphocyte count of the patient (in words) ([2]; summary of Table 1) | effect on white blood cell count of the patient (in words) ([2]; summary of Table 1) | further results
1 | CCc1cccc2c3c([nH]c12)C(CC)(CC(=O)O)OCC3 (racemic) [Etodolac, 1,8-diethyl-1,3,4,9-tetrahydro[3,4-b]-indole-1-acetic acid] | substantial reductions | substantial reductions | uptake of stained leukemic mononuclear cells by normal adherent cells ([1]; drug present in vitro, overnight incubation, compared to naproxen): No increase; phagocytosis of lymphocytes with patient serum ([1]; serum collected after etodolac 400 mg bid for two days, compared with drug-free serum and serum after naproxen 375 mg bid): No enhancement; Lymphocyte Ct. x E-3 [2, 4]: 20.68 x E-3; Neutrophil Count x E-3 [2, 4]: 3.58 x E-3; WBC Count x E-3 [2, 4]: 25.27 x E-3; platelet count (in words) ([2]; Oct. 28, 1997, after 300 mg BID Oct. 25-27, 1997): normal; lymphocyte count ([2]; Oct. 28, 1997, after 300 mg BID Oct. 25-27, 1997, count before treatment 27.44×E3): 6.70 ×E3; white blood cell count ([2]; Oct. 28, 1997, after 300 mg BID Oct. 25-27, 1997, count before treatment 34.3×E3): 13.40 ×E3; effect on platelet count (in words) ([2]; summary of Table 1): increased significantly; percentage of apoptotic cells [3]: remained the same; percentage of late apoptotic or necrotic cells [3]: decreased; percentage of viable cells [3]: increased
2 | O=C(O)Cc1ccccc1Nc1c(Cl)cccc1Cl [Diclofenac, diclofenac] | relatively little impact | relatively little impact | 
3 | CC(C)Cc1ccc(C(C)C(=O)O)cc1 (stereo not shown) [Ibuprofen, ibuprofen] | relatively little impact |  | 
4 | COc1ccc2c(c1)c(CC(=O)O)c(C)n2C(=O)c1ccc(Cl)cc1 [Indomethacin, indomethacin] | relatively little impact | relatively little impact | 
5 | COc1ccc2cc(CCC(C)=O)ccc2c1 [Nabumetone, nabumetone] | relatively little impact | relatively little impact | 
6 | COc1ccc2cc([C@H](C)C(=O)O)ccc2c1 [Naproxen, naproxen] | relatively little impact | relatively little impact | 
7 | O=C(O)CCc1nc(-c2ccccc2)c(-c2ccccc2)o1 [Oxaprozin, oxaprozin] | relatively little impact | relatively little impact | 
8 | CN1C(C(=O)Nc2ccccn2)=C(O)c2ccccc2S1(=O)=O [Piroxicam, piroxicam] | relatively little impact | relatively little impact | 
9 | CC1=C(CC(=O)O)c2cc(F)ccc2/C1=C\c1ccc([S+](C)[O-])cc1 (stereo not shown) [Sulindac, sulindac] | relatively little impact | relatively little impact | 
10 | Cc1ccc(C(=O)c2ccc(CC(=O)O)n2C)cc1 [Tolmetin, tolmetin] | relatively little impact | relatively little impact | 
